The values below come from ChEMBL document CHEMBL6087480, “In Search for Inhibitors of Human Aldo-Keto Reductase 1B10 (AKR1B10) as Novel Agents to Fight Cancer and Chemoresistance: Current State-of-the-Art and Prospects” (J Med Chem, 2025).

pIC50: −log10 of the molar value.

The target of assay [1] is T1, Aldo-keto reductase family 1 member B1 (Homo sapiens, UniProt P15121). In words: Inhibition of human recombinant AKR1B1.
Assay [2] addresses T2, Aldo-keto reductase family 1 member B10 (Homo sapiens, UniProt O60218). In words: Inhibition of AKR1B10 (unknown origin).
The target in assay [3] is T1, Aldo-keto reductase family 1 member B1. The assay can be described thus: Inhibition of AKR1B1 (unknown origin).
For assay [4], the target named is T2, Aldo-keto reductase family 1 member B10. In words: Inhibition of human recombinant AKR1B10.
Assay [5] concerns the target T1, Aldo-keto reductase family 1 member B1. In words: Inhibition of human recombinant AKR1B1 by fluorescence based analysis.
The target is the same in assay [6]. In words: Inhibition of N-terminal 6his-tagged wild type human recombinant AKR1B1 extracted from Escherichia coli BL21 (DE3) by fluorescence based analysis.

T2 sequence (O60218 whole entry): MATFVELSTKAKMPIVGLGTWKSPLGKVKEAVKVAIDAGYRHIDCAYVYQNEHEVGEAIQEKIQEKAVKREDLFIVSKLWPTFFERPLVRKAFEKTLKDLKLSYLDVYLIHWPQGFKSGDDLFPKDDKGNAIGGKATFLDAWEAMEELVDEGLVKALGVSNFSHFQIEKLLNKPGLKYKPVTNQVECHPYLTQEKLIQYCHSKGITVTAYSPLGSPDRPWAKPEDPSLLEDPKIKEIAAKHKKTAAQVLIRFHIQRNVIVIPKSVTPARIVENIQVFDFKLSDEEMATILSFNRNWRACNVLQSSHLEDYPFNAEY

As for `COc1cc(/C=C/C(=O)CC(=O)/C=C/c2ccc(O)cc2)ccc1O`, in assay [1], the pIC50 (in general, the negative decadic logarithm of the IC50, by convention in mol/L) is 5.92.
The molecule `COc1ccc(OC)c(/N=c2\oc3cc(O)ccc3cc2C(=O)Nc2ccccn2)c1` gave a pIC50 in assay [2] of 7.70.
With `COc1ccc(/N=c2\oc3cc(O)ccc3cc2C(=O)Nc2cccc(C)n2)cc1OC`, the pIC50 in assay [2] was 7.52.
As to `COc1ccc(/N=c2\oc3cc(O)ccc3cc2C(=O)Nc2ccccn2)c(OC)c1`, in assay [2], the pIC50 is 8.00.
For `COc1ccc(/N=c2\oc3cc(O)ccc3cc2C(=O)Nc2ccccn2)cc1`, the pIC50 in assay [2] was 6.30.
For the molecule `C[C@]12CCC(=O)C[C@@H]1CC[C@@H]1[C@@H]2CC[C@]2(C)C(=O)CC[C@@H]12`, the pIC50 in assay [2] is 6.41; in assay [3] it was 4.60.
In the case of `CC1=C(CC(=O)O)c2cc(F)ccc2/C1=C\c1ccc([S+](C)[O-])cc1` (stereo not given), the pIC50 was 6.46 in assay [4] and 6.68 in assay [5].
With `O=C(O)Cn1ccc(=O)n(Cc2ccc(Cl)c([N+](=O)[O-])c2)c1=O`, the values for the pIC50 in assay [2] and in assay [3] were 4.67 and 5.00, respectively.
In assay [2], `Cc1c2cc(O)c(=O)cc-2oc2cc(O)c(O)cc12` showed a pIC50 of 6.40.
In turn, `COc1cc(O)ccc1/C=C/C(=O)OCCc1ccccc1` gave a pIC50 in assay [2] of 8.00.
`COc1cc(O)ccc1/C=C/C(=O)OCCCc1ccccc1O` had a pIC50 in assay [2] of 7.00.
In assay [2], `COc1cc(O)ccc1/C=C/C(=O)OCCCc1cccc(O)c1` gave a pIC50 of 6.30.
Regarding `CC(C)=CCc1c(O)cc2oc3cc(O)c(O)c(CC=C(C)C)c3c(=O)c2c1O`, in assay [1], the pIC50 is 6.54.
As for `O=C(/C=C/c1ccc(O)c(O)c1)O[C@H]1C[C@@](O)(C(=O)O)C[C@H](O)[C@@H]1O`, the pIC50 in assay [2] is 5.10.
For `CC(C)=CCC1=C(O)[C@](O)(CC=C(C)C)C(=O)C(C(=O)CC(C)C)=C1O`, the pIC50 in assay [2] was 5.71; in assay [3], below 3.90.
For `C=CCc1cc(-c2cccc(CC=C)c2O)ccc1O`, in assay [1], the pIC50 is 4.44.
`O=C(NCCCc1cccc(O)c1)c1cc2ccc(O)cc2oc1=O` had a pIC50 in assay [2] of 6.10.
In the case of `CC(=O)[C@H]1CC[C@H]2[C@@H]3CC[C@H]4CC(=O)CC[C@]4(C)[C@H]3CC[C@]12C`, the pIC50 was 6.36 in assay [2] and 4.89 in assay [3].
Take `COc1cc(O)c(CC=C(C)C)c2c1C(=O)C[C@@H](c1ccc(O)cc1)O2`: the figures for the pIC50 in assay [2] and in assay [3] were 5.96 and 6.24, respectively.
For `CC(=O)[C@H]1CC[C@H]2[C@@H]3CC[C@@H]4CC(=O)CC[C@]4(C)[C@H]3CC[C@]12C`, the pIC50 is 6.11 in assay [2] and 5.05 in assay [3].
For `C[C@@]12CCC[C@H]1[C@@H]1C[C@H](O)C3=C[C@@H](O)CC[C@]3(C)[C@H]1CC2` the same measures were 6.30 and 4.17.
With `Oc1c(F)c(F)c(-c2c(F)c(F)c(O)c(F)c2F)c(F)c1F`, the pIC50 in assay [2] is 6.00; in assay [3] it was 6.52.
`CC(C)=CCC1=C(O)[C@](O)(CC=C(C)C)C(=O)C(C(=O)C(C)C)=C1O`: in assay [3], the pIC50 was below 3.90.
`C/C(=C\c1ccc(C(=O)O)cc1Br)c1ccc2c(c1)C(C)(C)CCC2(C)C`: the pIC50 in assay [2] was 5.21; in assay [3], below 4.15.
`C[C@]12CCC(=O)C[C@@H]1CC[C@@H]1[C@@H]2CC[C@]2(C)[C@@H](C(=O)CO)CC[C@@H]12`: the pIC50 in assay [2] was 6.43; in assay [3], 4.26.
Turning to `COc1c(Cn2c(=O)ccn(CC(=O)O)c2=O)cc(Br)c(Br)c1Br`, the pIC50 was 6.35 in assay [2] and 5.44 in assay [3].
Consider `C[C@H](CCC(=O)O)[C@H]1CC[C@H]2[C@@H]3C[C@@H](O)[C@@]4(O)C[C@@H](O)CC[C@]4(C)[C@H]3CC[C@]12C`, for which the pIC50 in assay [2] is 6.08; in assay [3] it was below 4.00.
In the same order, the values of `C[C@@]12CCC[C@H]1[C@@H]1CC(=O)C3=CC(=O)CC[C@]3(C)[C@H]1CC2` are 6.09 and 3.80.
In the same order, the values of `C[C@H](CCC(=O)O)[C@H]1CC[C@H]2[C@@H]3C[C@@H](O)[C@@]4(O)C[C@@H](O)CC[C@]4(CO)[C@H]3CC[C@]12C` are 6.12 and 5.27.
As to `NC(=O)[C@@H]1C[C@]2(NC(=O)NC2=O)c2cc(F)ccc2O1`, the pIC50 in assay [6] was 7.10; in assay [2], 4.62.
On to `O=C(/C=C/c1ccc(O)c(O)c1)c1ccc(O)cc1O` [BUTEIN], for which the pIC50 in assay [1] is 6.30.
As to `O=c1cc(-c2ccccc2)oc2cc(O)cc(O)c12` [CHRYSIN], the figures for the pIC50 in assay [2] and in assay [3] were 5.68 and 6.54, respectively.
As to `COc1cc(/C=C/C(=O)CC(=O)/C=C/c2ccc(O)c(OC)c2)ccc1O` [CURCUMIN], the negative logarithm of the IC50 (pIC50) in assay [1] was 5.14.
For the molecule `O=C(O)Cc1ccccc1Nc1c(Cl)cccc1Cl` [DICLOFENAC], the pIC50 in assay [5] is below 4.00.
As to `Cc1cc(O)c2c(c1)C(=O)c1cc(O)cc(O)c1C2=O` [EMODIN], the pIC50 in assay [1] is 5.46.
With `C[C@]12CC[C@H](O)C[C@@H]1CC[C@@H]1[C@@H]2CC[C@]2(C)C(=O)CC[C@@H]12` [EPIANDROSTERONE], the pIC50 in assay [2] was 6.49; in assay [3], 4.43.
Consider `C[C@]12CC[C@@H]3c4ccc(O)cc4CC[C@H]3[C@@H]1CC[C@@H]2O` [ESTRADIOL], for which the pIC50 in assay [2] was 5.52; in assay [3], 4.62.
For `C[C@]12CC[C@@H]3c4ccc(O)cc4CC[C@H]3[C@@H]1CCC2=O` [ESTRONE], the figures for the pIC50 in assay [2] and in assay [3] were 5.80 and 4.51, respectively.
`Cc1cc(O)c2c(c1)C(=O)c1cc(O[C@@H]3O[C@@H](C)[C@H](O)[C@@H](O)[C@H]3O)cc(O)c1C2=O` [FRANGULIN A]: in assay [1], the pIC50 is 5.24.
Take `Cc1cc(O)c2c(c1)C(=O)c1cc(O[C@@H]3OC[C@](O)(CO)[C@H]3O)cc(O)c1C2=O` [FRANGULIN B]: the pIC50 in assay [1] is 5.26.
With `O=c1c(-c2ccc(O)cc2)coc2cc(O)cc(O)c12` [GENISTEIN], the pIC50 in assay [2] is 5.26.
Same read-out and setting: then `C[C@H](CCC(=O)O)[C@H]1CC[C@H]2[C@@H]3CC[C@@H]4C[C@@H](O)CC[C@]4(C)[C@H]3CC[C@]12C` [ISOLITHOCHOLIC ACID], with 7.70.
For the molecule `C=CCc1ccc(O)c(-c2cc(CC=C)ccc2O)c1` [MAGNOLOL], in assay [1], the pIC50 was 4.55.
The same measure, in the same setting: then `COc1c(O)cc2oc3cc(O)c(CC=C(C)C)c(O)c3c(=O)c2c1CC=C(C)C` [MANGOSTIN], with 5.39.
Molecule `CC1(C)CC[C@]2(C(=O)O)CC[C@]3(C)C(=CC[C@@H]4[C@@]5(C)C[C@@H](O)[C@H](O)C(C)(C)[C@@H]5CC[C@]43C)[C@@H]2C1` [MASLINIC ACID] gave a pIC50 in assay [2] of 6.22.
As for `Cc1ccc(Cl)c(Nc2ccccc2C(=O)O)c1Cl` [MECLOFENAMIC ACID], the pIC50 in assay [4] was 5.01; in assay [5] it was below 4.00.
With `O=c1c(O)c(-c2cc(O)c(O)c(O)c2)oc2cc(O)cc(O)c12` [MYRICETIN], the pIC50 in assay [3] is 6.21.
In turn, `O=c1c(O)c(-c2ccc(O)c(O)c2)oc2cc(O)cc(O)c12` [QUERCETIN] gave a pIC50 in assay [2] of 5.72.
For the molecule `Oc1ccc(/C=C/c2cc(O)cc(O)c2)cc1` [RESVERATROL], the pIC50 in assay [1] was 4.14.
`CC(=O)[C@H]1CC[C@H]2[C@@H]3CC[C@H]4C[C@@H](O)CC[C@]4(C)[C@H]3CC[C@]12C` [SEPRANOLONE]: the figures for the pIC50 in assay [2] and in assay [3] were 6.30 and 4.41, respectively.
Molecule `COc1ccc2c(C(=S)N(C)CC(=O)O)cccc2c1C(F)(F)F` [TOLRESTAT] showed a pIC50 in assay [2] of 7.30.
For `C[C@H](CCC(=O)O)[C@H]1CC[C@H]2[C@@H]3CC[C@@H]4CCCC[C@]4(C)[C@H]3CC[C@]12C` [URSOCHOLANIC ACID], the negative-log IC50 (pIC50) in assay [2] was 7.30; in assay [3] it was 4.80.
